Measurements published in patent publication US11844846B2, “Styrylbenzothiazole derivatives and uses in imaging methods” (Emory University, priority 2018, dated 2023).
“And” between values parts separate entries of the source, which are not always exact repeats. Identical values can stand only once. “Also recorded” adds a separate entry of the source. Like-named read-outs stand apart in the source and are kept apart here.

Columns and labels:
[1] = biological target: T1, Lewy bodies in α-Syn A53T virus injected WT mice brain slices (Homo sapiens, UniProt P37840, A53T); assay: staining of mouse brain slices with Lewy bodies; assay type: binding
T1 construct: from tissue; host or cells: brain (substantia nigra) of wild-type mice injected with α-Syn A53T virus
Protocol: (§1) To further explore whether the positive compounds selectively bind to the Lewy bodies, α-Syn A53T patient-derived mutant virus injected WT mice brain slices were employed. These mice display extensive Lewy bodies in the SN.
(§2) To further explore whether the positive compounds selectively bind to the Lewy bodies, a α-Syn A53T patient-derived mutant virus was injected into WT mice brain slices. These mice display extensive Lewy bodies in the Substantial nigra (SN). Moreover, P301S mice expressed neurofibrillary tangles (NFT). The Lewy bodies were labeled with p-α-Syn S129 antibody and the positive aggregates were also labeled with the fluorescent signals from the small molecules. […] However, it was worth noting that almost none of the tested compounds were reactive with NFT.

[2] = biological target: α-Syn PFFs (Homo sapiens, UniProt P37840); assay: fluorescence spectroscopy titration with α-Syn PFFs; assay type: binding; conditions: 0.08 μM fibrils, 5 μM small molecule, result in words
Protocol: (§3) A fluorescent titration assay was conducted. The fluorescent emission intensities were determined with 0.08 μM of various fibrils in the presence of 5 μM of the small molecules.
(§4) To further investigate the selected compounds binding activities with α-Syn PFFs, fluorescence spectroscopy titrations were conducted to quantitatively measure compounds emission intensity when interacting with different concentrations of α-Syn PFFs. The UV spectrum of each compound was determined and selected for the optimal wavelength to conduct the fluorescence spectroscopic studies.

[3] = biological target: Tau PFFs (Homo sapiens, UniProt P10636); assay: fluorescence spectroscopy titration with Tau PFFs; assay type: binding; conditions: 0.08 μM fibrils, 5 μM small molecule; result in words
Chain of Tau PFFs (P10636 whole entry): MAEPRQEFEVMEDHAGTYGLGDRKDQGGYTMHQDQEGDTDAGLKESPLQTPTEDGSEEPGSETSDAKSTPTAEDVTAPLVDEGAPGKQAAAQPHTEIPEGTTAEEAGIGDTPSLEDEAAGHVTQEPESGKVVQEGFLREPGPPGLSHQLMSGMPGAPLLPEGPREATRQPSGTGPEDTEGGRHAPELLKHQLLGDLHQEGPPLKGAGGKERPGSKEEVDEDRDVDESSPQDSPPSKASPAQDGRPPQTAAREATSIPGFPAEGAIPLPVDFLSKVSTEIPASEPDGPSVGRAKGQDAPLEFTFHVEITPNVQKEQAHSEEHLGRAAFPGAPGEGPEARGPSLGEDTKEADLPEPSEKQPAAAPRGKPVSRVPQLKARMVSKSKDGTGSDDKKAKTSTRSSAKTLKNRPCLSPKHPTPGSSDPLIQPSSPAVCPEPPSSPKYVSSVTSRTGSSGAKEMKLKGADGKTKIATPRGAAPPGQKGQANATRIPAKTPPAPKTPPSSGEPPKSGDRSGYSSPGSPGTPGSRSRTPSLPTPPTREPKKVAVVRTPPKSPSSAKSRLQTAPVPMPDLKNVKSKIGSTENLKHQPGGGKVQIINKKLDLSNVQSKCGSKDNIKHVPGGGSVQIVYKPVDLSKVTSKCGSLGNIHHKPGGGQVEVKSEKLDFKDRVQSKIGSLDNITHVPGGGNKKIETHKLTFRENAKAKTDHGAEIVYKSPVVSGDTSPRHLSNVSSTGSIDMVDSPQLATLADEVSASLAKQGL
Protocol: as §3, §4

[4] = biological target: T2, Aβ PFFs (Homo sapiens, UniProt P05067); assay: fluorescence spectroscopy titration with Aβ PFFs; assay type: binding; conditions: 0.08 μM fibrils, 5 μM small molecule; result in words
T2 construct: counter-screening with Tau and Aβ PFFs
T2 sequence (P05067 672-713 limits assumed): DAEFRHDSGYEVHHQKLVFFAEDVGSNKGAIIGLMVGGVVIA
Protocol: as §3, §4

[5] = tested on: α-Syn aggregated neurons; assay: neuronal α-Syn aggregation model, fluorescent microscopy; assay type: cell-based; conditions: primary cultured neurons, AAV-α-Syn plus α-Syn PFFs
Description: (§5) A series of derivatives were synthesized by including an amino group and a methyl group on benzothiazole to increase the brain permeability and fluorescent signals. The derivatives were subsequently subjected to α-Syn PFFs binding assay and counter-screening with Tau and Aβ PFFs. […] These compounds were screened on the neuronal α-Syn, Tau and Aβ aggregation model for the binding selectivity. Primary cultured neurons were infected with AAV-α-Syn, AAV-Tau FL for 7 days, then treated with α-Syn, Tau or Aβ PFFs. In a few days, the positive compounds were added in the primary neurons with indicated aggregates and analyzed under fluorescent microscopy.
(§6) Primary cultured neurons were infected with AAV-α-Syn, AAV-Tau FL or AAV-APP fragment virus for 7 days, and then treated with α-Syn, Tau or Aβ PFFs by following the described protocols (Volpicelli-Daley et al., 2014). In a few days, the positive compounds were added in the primary neurons with indicated aggregation.

[6] = tested on: neurons with Aβ or Tau aggregates; assay: neuronal Aβ and Tau aggregation models, fluorescent microscopy; assay type: cell-based; conditions: primary cultured neurons
Description: as §5, §6

[7] = tested on: senile plaques or NFT in AD; assay: ex vivo screening on AD patient brain sections; assay type: binding, human
Description: (§7) Ex vivo screening was extended into human DLB, MSA and AD patient samples. […] Since there are detectable α-Syn aggregates in AD patient brains, these compounds colocalized with p-S129 positive α-Syn inclusions.
(§8) The ex vivo screening was extended into human DLB, MSA and AD patient samples. Neurodegenerative disease of DLB (dementia with Lewy Bodies) and MSA belongs to synucleinopathies with well-defined Lewy bodies.

[8] = biological target: T3, LBs and LNs in DLB and MSA patient brains (Homo sapiens, UniProt P37840); assay: ex vivo screening on DLB and MSA patient brain sections; assay type: binding
T3 construct: from tissue; host or cells: brain sections of DLB and MSA patients
Description: as §7, §8

[9] = plasma-brain ratio study / in vivo PK of EU compounds; parameters: species or system mouse
Protocol: To address whether the selected compounds penetrate the brain, a plasma-brain ratio study was performed with EU04-03A, EU05-02A and EU05-02B.
To test whether these compounds are brain permeable in vivo, in vivo PK profiling was conducted to determine brain exposure.

[10] = biological target: T4, senile plaques in 5×FAD and 3×Tg mice brain sections (Homo sapiens, UniProt P05067); assay: staining of mouse brain sections with senile plaques; assay type: binding
T4 construct: Aβ-enriched senile plaques; from tissue; host or cells: brain sections of 5×FAD and 3×Tg mice
T4 sequence (P05067 672-713 limits assumed): as above

[11] = tested on: NFT in Tau P301S and 3×Tg mice brain sections; assay: staining of mouse brain sections with NFT; assay type: binding
Protocol: as §1, §2

[12] = biological target: pre-formed fibrils (PFFs) of α-Synuclein (Homo sapiens, UniProt P37840); assay: in vitro binding assay with α-Syn PFFs; conditions: counter-screening, result in words
Description: The general strategy that was employed to screen the candidate Lewy body PET agents is summarized as follows: (a) To perform in vitro binding assay with Pre-formed fibrils (PFFs) of α-Syn and counter-screening with Tau and Aβ PFFs; (b) To test the positive compounds in the neuronal models with aggregated α-Syn, Tau or […]; (c) To screen with the brain slides from α-Syn mutant A53T virus injected WT mice, and counter-screen with aged 3×Tg (containing both senile plaques and NFT), and aged Tau P301S (NFT) brain sections; (d) to screen the patient brain sections from DLB and MSA against AD; (e) To determine the binding kinetics between α-Syn PFFs and positive hits; (f) To determine the candidates in vivo brain/plasma (B/P) ratios and the brain permeability; (g) To determine the in vivo PET images in α-Syn A53T with candidates and compare its images in 5XFAD and Tau P301S mice.
To perform in vitro binding assay, commercial compounds were screened (See FIG. 7B).
as §5
To perform in vitro binding assay, compounds were screened. […] An amino group and a methyl group in the benzothazole were added to increase its brain permeability and fluorescent signals. […] The synthesized derivatives were subsequently subjected to the α-Syn PFFs binding and counter-screen of Tau and Aβ PFFs as described above.

COc1cc(/C=C/c2nc3ccc(N(C)C)cc3s2)ccc1O [EU-004-02A, (E)-4-(2-(6-(dimethylamino)benzo[d]thiazol-2-yl)vinyl)-2-methoxyphenol]
staining of Lewy bodies (p-α-Syn S129 positive) [1]: signals were very weak

CN(C)c1ccc2nc(/C=C/c3ccc(O)c(Br)c3)sc2c1 [EU-004-02B, (E)-2-bromo-4-(2-(6-(dimethylamino)benzo[d]thiazol-2-yl)vinyl)phenol]
binding to α-Syn PFFs by fluorescent emission intensity [2]: modest and weak binding activities toward these 3 PFFs
binding to Tau PFFs by fluorescent emission intensity [3]: modest and weak binding activities toward these 3 PFFs
binding to Aβ PFFs by fluorescent emission intensity [4]: modest and weak binding activities toward these 3 PFFs

CCNc1ccc2nc(/C=C/c3ccc(O)c(OC)c3)sc2c1 [EU-004-03A, (E)-4-(2-(6-(ethylamino)benzo[d]thiazol-2-yl)vinyl)-2-methoxyphenol]
fluorescent signal in α-Syn aggregated neurons [5]: positive for selective binding
fluorescent signal in α-Syn aggregated neurons ([5]; listed as EU04-03A): positive signals in α-Syn aggregated neurons
fluorescent signal in neurons with Aβ or Tau aggregates [6]: negligible effects in neurons with Aβ or Tau aggregates
staining of senile plaques or NFT (Aβ, AT8 positive aggregates) [7]: barely co-stained with anti-AD or AT8 positive aggregate signals
staining of senile plaques or NFT (Aβ, AT8 positive aggregates) ([7]; listed as EU04-03A): barely recognized AT8 positive Tau NFT or Aβ aggregates in AD brains
staining of LBs and LNs [8]: robust signals with LBs and LNs
staining of LBs and LNs ([8]; listed as EU04-03A): co-stained with Lewy bodies
binding to α-Syn PFFs by fluorescent emission intensity [2]: but not EU-05-02A and EU-04-03A showed specific association with the PFFs
brain permeability ([9]; mice, i.v., result in words, listed as EU04-03A): swiftly penetrated the brain and exhibited much higher brain permeability compared to EU05-02A; also recorded: higher brain permeability than EU05-02B

COc1cc(/C=C/c2nc3cc(C)c(N(C)C)cc3s2)ccc1O [EU-005-02A, (E)-4-(2-(6-(dimethylamino)-5-methylbenzo[d]thiazol-2-yl)vinyl)-2-methoxyphenol]
staining of Lewy bodies (p-α-Syn S129 positive) [1]: signals were very weak
fluorescent signal in α-Syn aggregated neurons [5]: positive for selective binding
fluorescent signal in α-Syn aggregated neurons ([5]; listed as EU05-02A): positive signals in α-Syn aggregated neurons
fluorescent signal in neurons with Aβ or Tau aggregates [6]: negligible effects in neurons with Aβ or Tau aggregates
staining of senile plaques or NFT (Aβ, AT8 positive aggregates) [7]: barely co-stained with anti-AD or AT8 positive aggregate signals
staining of senile plaques or NFT (Aβ, AT8 positive aggregates) ([7]; listed as EU05-02A): barely recognized AT8 positive Tau NFT or Aβ aggregates in AD brains
staining of LBs and LNs [8]: robust signals with LBs and LNs
staining of LBs and LNs ([8]; listed as EU05-02A): co-stained with Lewy bodies
binding to α-Syn PFFs by fluorescent emission intensity [2]: strongly bound to both α-Syn and Tau PFFs
binding to α-Syn PFFs by fluorescent emission intensity ([2]; listed as EU-05-02A): but not EU-05-02A and EU-04-03A showed specific association with the PFFs
binding to Tau PFFs by fluorescent emission intensity [3]: strongly bound to both α-Syn and Tau PFFs
B/P ([9]; Male ICR Mouse, 5 mg/kg IV, 0.50 h, single animals, 5 mg/kg): 0.65 and 1.62 and 0.69
B/P ([9]; Male ICR Mouse, 5 mg/kg IV, 1.00 h, single animals, 5 mg/kg): 0.46 and 0.26
B/P ([9]; Male ICR Mouse, 5 mg/kg IV, 2.00 h, single animals, 5 mg/kg): 0.49 and 0.34
Kp at 0.5 h ([9]; male, ICR, mouse, brain, iv, 5 mg/kg, Male ICR Mouse, 5 mg/kg IV, 0.50 h, read-out: B/P Mean): 0.99
Kp at 1 h ([9]; male, ICR, mouse, brain, iv, 5 mg/kg, Male ICR Mouse, 5 mg/kg IV, 1.00 h, single animals, read-out: B/P): 0.52
Kp at 1 h ([9]; male, ICR, mouse, brain, iv, 5 mg/kg, Male ICR Mouse, 5 mg/kg IV, 1.00 h, read-out: B/P Mean): 0.41
Kp at 2 h ([9]; male, ICR, mouse, brain, iv, 5 mg/kg, Male ICR Mouse, 5 mg/kg IV, 2.00 h, single animals, read-out: B/P): 0.42
Kp at 2 h ([9]; male, ICR, mouse, brain, iv, 5 mg/kg, Male ICR Mouse, 5 mg/kg IV, 2.00 h, read-out: B/P Mean): 0.41
in vivo half-life / decay ([9]; mice, i.v. 5 mg/kg, result in words): decayed 2 h after i.v. administration

Cc1ccc2c(c1)sc(-c1ccc(N(C)C)cc1)[n+]2C.[Cl-] [ThT, reference compound]
staining of Lewy bodies (p-α-Syn S129 positive) [1]: co-localized with all of these aggregates in the brain sections; also recorded: co-localized with p-S129 aggregates in the brain sections
staining of senile plaques [10]: co-localized with all of these aggregates in the brain sections
staining of NFT [11]: co-localized with all of these aggregates in the brain sections
binding selectivity α-Syn versus Aβ or Tau PFFs [12]: non-selectively interacted with these PFFs; also recorded: non-selectively interacted with both α-Syn and Tau PFFs
